Reference: patent US20240216369A1, “THE USE OF A SPLICING MODULATOR FOR A TREATMENT SLOWING PROGRESSION OF HUNTINGTON'S DISEASE” (Novartis AG, priority 2019, published 2024)

Tests used:
[1] = test system: mHTT; assay: Mutant and total HTT multiplex HTRF assay in Q48 HTT human embryonic stem cell line: mHTT; format: cell-based; details: Q48 HTT hESC, 48 hours
Outline: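 Q48 HTT hESCs from HD donors were treated with compound for 48 h at 37 °C after 24 h adherence, then lysed. Lysates were read by multiplex HTRF with N-terminal donor, polyQ (MW1) and post-polyQ (MAB2166) antibodies for 4-6 h at RT. Donor/acceptor ratios give relative mHTT and tHTT; pIC50 reported.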

[2] = test system: endogenous mouse HTT transcript or protein; assay: BacHD mice: effect on endogenous mouse HTT; format: in vivo
Experimental: Total RNA from cerebrum and cerebellum was extracted using RNeasy Plus kit (Qiagen) after homogenized in Precellys at 6000 rpm for 40 sec. RNA from blood was extracted using PAXgene blood RNA kit (Qiagen) according to manufacturer protocol. The RNA was quantified by Nanodrop 2000 (Thermo Scientific). cDNAs were synthesized from 140-400 ng RNA using Maxima First strand cDNA synthesis kit using a mix of oligo dT and random hexamers (Thermo Scientific) in 20 uL reaction at 25° C. for 10 min, 50° C. for 15 min then 85° C. for 5 min. Quantitative PCR was performed using Taqman Fast Advanced master mix (Thermo Scientific) in 20 uL with 4 uL of cDNA reaction and primers specific for each genes. The PCR steps were as follows: 95° C. for 20 sec then 40 cycles of 95° C. for 1 sec, 55° C. for 20 sec. […] Relative quantification of gene expression was performed using 2^−ΔΔCT method. Fold changes in the mRNA expression level was calculated following normalization to mouse glucuronidase beta (Gusb) as an endogenous reference.
Snap-frozen mouse tissue samples were homogenized in RIPA buffer with protease and phosphatase inhibitor (Thermo Scientific) by Precellys at 6000 rpm for 40 sec. […] Total protein concentration was quantified using the BCA protein Assay (Thermo Scientific). […] Protein bands were quantified by Image J.

What does the source list for `CC1(C)CC(Oc2ccc(-c3ccc(-c4cn[nH]c4)cc3O)nn2)CC(C)(C)N1` [Compound 18, 5-(1H-pyrazol-4-yl)-2-(6-((2,2,6,6-tetramethylpiperidin-4-yl)oxy)pyridazin-3-yl)phenol]?
Rating (based on mHTT potency) [1]: **** (a pIC50 value between 7.0 and 7.5 is indicated by four stars (****)); mHTT pIC50 [1]: 7.2795; effect on endogenous mouse HTT transcript or protein [2]: no lowering effect
